Assay results reported in ChEMBL document CHEMBL4330132, “5-Keto-3-cyano-2,4-diaminothiophenes as selective maternal embryonic leucine zipper kinase inhibitors” (Bioorg Med Chem Lett, 2019).

What was measured:
[1] = test system: Tyrosine-protein kinase ABL1 (Homo sapiens), P00519 [F317L]; assay: Binding affinity to human phosphorylated ABL1 F317L mutant (S229 to K512 residues) expressed in mammalian expression system assessed as residual binding level at 1 uM by Kinomescan method relative to control
[2] = target: Activin receptor type-2A (Homo sapiens) (UniProt P27037); assay: Binding affinity to wild-type human ACVR2A (V171 to T499 residues) expressed in bacterial expression system assessed as residual binding level at 1 uM by Kinomescan method relative to control
[3] = target: Cytoplasmic tyrosine-protein kinase BMX (Homo sapiens) (UniProt P51813); assay: Binding affinity to wild-type human full length BMX (M1 to H675 residues) expressed in bacterial expression system assessed as residual binding level at 1 uM by Kinomescan method relative to control
[4] = target: Cyclin-dependent kinase 11A (Homo sapiens) (UniProt Q9UQ88); assay: Binding affinity to wild-type human partial length CDC2L2 (D391 to K730 residues) expressed in bacterial expression system assessed as residual binding level at 1 uM by Kinomescan method relative to control
[5] = target: Cyclin-dependent kinase 19 (Homo sapiens) (UniProt Q9BWU1); assay: Binding affinity to wild-type human partial length CDK11 (M1 to N360 residues) expressed in bacterial expression system assessed as residual binding level at 1 uM by Kinomescan method relative to control
[6] = target: Tyrosine-protein kinase CSK (Homo sapiens) (UniProt P41240); assay: Binding affinity to wild-type human full length CSK (M1 to L450 residues) expressed in bacterial expression system assessed as residual binding level at 1 uM by Kinomescan method relative to control
[7] = target: Casein kinase II subunit alpha' (Homo sapiens) (UniProt P19784); assay: Binding affinity to wild-type human full length CSNK2A2 (M1 to R350 residues) expressed in mammalian expression system assessed as residual binding level at 1 uM by Kinomescan method relative to control
[8] = target: Death-associated protein kinase 2 (Homo sapiens) (UniProt Q9UIK4); assay: Binding affinity to wild-type human full length DAPK2 (M1 to S370 residues) expressed in bacterial expression system assessed as residual binding level at 1 uM by Kinomescan method relative to control
[9] = test system: Epidermal growth factor receptor (Homo sapiens), P00533 [G719C]; assay: Binding affinity to human partial length EGFR G719C mutant (R669 to V1011 residues) expressed in bacterial expression system assessed as residual binding level at 1 uM by Kinomescan method relative to control
[10] = test system: Epidermal growth factor receptor (Homo sapiens), P00533 [UNDEFINED MUTATION]; assay: Binding affinity to human partial length EGFR L747-E749del/A750P mutant expressed in bacterial expression system assessed as residual binding level at 1 uM by Kinomescan method relative to control
[11] = target: Receptor tyrosine-protein kinase erbB-4 (Homo sapiens) (UniProt Q15303); assay: Binding affinity to wild-type human partial length ERBB4 (L690 to K994 residues) expressed in bacterial expression system assessed as residual binding level at 1 uM by Kinomescan method relative to control
[12] = target: Serine/threonine-protein kinase/endoribonuclease IRE1 (Homo sapiens) (UniProt O75460); assay: Binding affinity to wild-type human partial length ERN1 (S551 to E852 residues) expressed in mammalian expression system assessed as residual binding level at 1 uM by Kinomescan method relative to control
[13] = target: Homeodomain-interacting protein kinase 1 (Homo sapiens) (UniProt Q86Z02); assay: Binding affinity to wild-type human partial length HIPK1 (M146 to I555 residues) expressed in mammalian expression system assessed as residual binding level at 1 uM by Kinomescan method relative to control
[14] = target: Serine/threonine-protein kinase ICK (Homo sapiens) (UniProt Q9UPZ9); assay: Binding affinity to wild-type human partial length ICK (M1 to P314 residues) expressed in mammalian expression system assessed as residual binding level at 1 uM by Kinomescan method relative to control
[15] = target: Macrophage-stimulating protein receptor (Homo sapiens) (UniProt Q04912); assay: Binding affinity to wild-type human partial length MST1R (I1057 to L1363 residues) expressed in bacterial expression system assessed as residual binding level at 1 uM by Kinomescan method relative to control
[16] = test system: Phosphatidylinositol 4,5-bisphosphate 3-kinase catalytic subunit alpha isoform (Homo sapiens), P42336 [C420R]; assay: Binding affinity to human partial length PIK3CA C420R mutant (R108 to N1068 residues) expressed in mammalian expression system assessed as residual binding level at 1 uM by Kinomescan method relative to control
[17] = target: cAMP-dependent protein kinase catalytic subunit beta (Homo sapiens) (UniProt P22694); assay: Binding affinity to wild-type human full length PKAC-beta (M1 to F351 residues) expressed in bacterial expression system assessed as residual binding level at 1 uM by Kinomescan method relative to control
[18] = target: Protein kinase C delta type (Homo sapiens) (UniProt Q05655); assay: Binding affinity to wild-type human partial length PRKCD (Q328 to D676 residues) expressed in bacterial expression system assessed as residual binding level at 1 uM by Kinomescan method relative to control
[19] = target: Interferon-induced, double-stranded RNA-activated protein kinase (Homo sapiens) (UniProt P19525); assay: Binding affinity to wild-type human partial length PRKR (F247 to C551 residues) expressed in bacterial expression system assessed as residual binding level at 1 uM by Kinomescan method relative to control
[20] = target: Serine/threonine-protein kinase RIO2 (Homo sapiens) (UniProt Q9BVS4); assay: Binding affinity to wild-type human partial length RIOK2 (M1 to D313 residues) expressed in mammalian expression system assessed as residual binding level at 1 uM by Kinomescan method relative to control
[21] = target: Uncharacterized serine/threonine-protein kinase SBK3 (Homo sapiens) (UniProt P0C264); assay: Binding affinity to wild-type human partial length SgK110 (L22 to R329 residues) expressed in bacterial expression system assessed as residual binding level at 1 uM by Kinomescan method relative to control
[22] = target: NUAK family SNF1-like kinase 2 (Homo sapiens) (UniProt Q9H093); assay: Binding affinity to wild-type human partial length SNARK (P22 to A333 residues) expressed in mammalian expression system assessed as residual binding level at 1 uM by Kinomescan method relative to control
[23] = target: SNF-related serine/threonine-protein kinase (Homo sapiens) (UniProt Q9NRH2); assay: Binding affinity to wild-type human partial length SNRK (M1 to E339 residues) expressed in mammalian expression system assessed as residual binding level at 1 uM by Kinomescan method relative to control
[24] = target: Tyrosine-protein kinase SYK (Homo sapiens) (UniProt P43405); assay: Binding affinity to wild-type human partial length SYK (D354 to N635 residues) expressed in bacterial expression system assessed as residual binding level at 1 uM by Kinomescan method relative to control

## CC(C)Nc1sc(C(=O)c2ccc(Cl)s2)c(N)c1C#N
[1]
  Activity: 100%
[2]
  Activity: 62%
[3]
  Activity: 100%
[4]
  Activity: 100%
[5]
  Activity: 83%
[6]
  Activity: 88%
[7]
  Activity: 100%
[8]
  Activity: 66%
[9]
  Activity: 100%
[10]
  Activity: 80%
[11]
  Activity: 100%
[12]
  Activity: 100%
[13]
  Activity: 100%
[14]
  Activity: 100%
[15]
  Activity: 98%
[16]
  Activity: 100%
[17]
  Activity: 100%
[18]
  Activity: 72%
[19]
  Activity: 68%
[20]
  Activity: 100%
[21]
  Activity: 100%
[22]
  Activity: 100%
[23]
  Activity: 91%
[24]
  Activity: 91%
